The text below walks through data of patent publication US11161860B2, “Compound having effects of inhibiting phosphodiesterase 4, preparation method thereof and pharmaceutical use thereof” (Hefei Industrial Pharmaceutical Institute Co., Ltd., priority 2018, dated 2021).

For one experiment, the target named is T1, PDE4A enzyme (Homo sapiens, UniProt P27815).
T1 construct: GST (N); host or cells: Sf9 insect cells (baculovirus)
The experiment in a line: Inhibition of the activity of PDE4A enzyme (fluorescence polarization, Transcreener AMP2/GMP2). Type of experiment: biochemical. To be noted: 1 h, mean ± spread; for remaining activity at 0.01 µM: 0.01 μM compound; for remaining activity at 0.1 µM: 0.1 μM compound; for remaining activity at 1 µM: 1 μM compound. The method, then:
The PDE4A enzyme expressed from baculovirus is labeled with N-terminal GST from Sf9 insect cells. A specified PDE4A enzyme and 1 mM cAMP are added to the newly prepared pH 7.5 Tris buffer, the enzyme solution is transferred into reaction wells, and the compound is sonicated in DMSO and then added to the enzyme solution for culturing for 10 minutes at room temperature; the substrate solution is poured into the reaction wells to initiate the reaction and cultured at room temperature for 1 hour, and a detection tracer (AMP2/GMP2 AlexaFluor 633 Tracer) and an antibody (Transcreener® AMP2/GMP2 Antibody) are added to stop the reaction for culturing for 90 minutes with gentle mixing. […]

Experiment [1] deals with DNCB-induced atopic dermatitis mice. The experiment in a line: DNCB-induced dermatitis mouse model, skin thickness. Type of experiment: in vivo, female BALB/C mice. As to conditions: for reduction of the thickness of the dermis compared with Crisaborole / reduction of the thickness of the epidermis compared with Crisaborole / reduction of the thickness of the dermis compared with the compound Y5 / reduction of the thickness of the epidermis compared with the compound Y5: 50 mg/mL topical; for reduction of the thickness of the dermis compared with Crisaborole / reduction of the thickness of the epidermis compared with Crisaborole: statistical comparison vs Crisaborole group; for Epidermal thickness / Dermis thickness: 50 mg/mL, 100 μL applied to back skin, 11 times once a day, Mean ± SD, n = 8; for Epidermal thickness: model 137.76, blank 48.93; for Dermis thickness: model 500.71, blank 194.70; for reduction of the thicknesses of the epidermal layer and dermal layer: vs model group, P<0.01; for reduction of the thickness of the dermis compared with the compound Y5 / reduction of the thickness of the epidermis compared with the compound Y5: statistical comparison vs Y5 group. As to the method:
After female BALB/C mice are selected, each weighing 18-22 g, for animal adaptive breeding for 7 days, these are randomly divided into a blank group, a model group, a positive drug Crisaborole group, a hexadecadrol group, and compound groups, with 8 in each group. Except for the mice in the blank group, the remaining mice are applied with 100 μL of a 1% DNCB solution [acetone: olive oil=4:1 (V/V)] on the skin of the back of the shaved mice, and applied continuously for 3 days once a day. Then, dosing treatment starts 4 days after the mice are housed, and the test drug is applied to the back of each group of animals, wherein animals in the blank group and the model group are applied with a corresponding solvent, the positive drug Crisaborole group and hexadecadrol group are applied with 50 mg/mL of a corresponding drug, and the administration group is applied with 50 mg/mL of a corresponding compound, with 100 μL for each mouse; after application of 4 hours, 0.5% DNCB solution is applied for secondary challenge, and repeated administration and challenge treatment are performed 11 times, once a day. 24 hours after the last administration, the animals are sacrificed, and the back skins (1×0.4 cm^2) are taken and fixed in 10% formalin buffer to make pathological sections and perform HE staining; then, the epidermal and dermal layers are observed under a 100× […], and 5 areas are selected for detection of and recording the skin thickness, and then the average value is taken to represent the final thicknesses of the epidermal layer and dermal layer, respectively.

SMILES strings stand for the structures. Marks after values point to notes of the source that are not given here.

T1 sequence (P27815 whole entry, species assumed): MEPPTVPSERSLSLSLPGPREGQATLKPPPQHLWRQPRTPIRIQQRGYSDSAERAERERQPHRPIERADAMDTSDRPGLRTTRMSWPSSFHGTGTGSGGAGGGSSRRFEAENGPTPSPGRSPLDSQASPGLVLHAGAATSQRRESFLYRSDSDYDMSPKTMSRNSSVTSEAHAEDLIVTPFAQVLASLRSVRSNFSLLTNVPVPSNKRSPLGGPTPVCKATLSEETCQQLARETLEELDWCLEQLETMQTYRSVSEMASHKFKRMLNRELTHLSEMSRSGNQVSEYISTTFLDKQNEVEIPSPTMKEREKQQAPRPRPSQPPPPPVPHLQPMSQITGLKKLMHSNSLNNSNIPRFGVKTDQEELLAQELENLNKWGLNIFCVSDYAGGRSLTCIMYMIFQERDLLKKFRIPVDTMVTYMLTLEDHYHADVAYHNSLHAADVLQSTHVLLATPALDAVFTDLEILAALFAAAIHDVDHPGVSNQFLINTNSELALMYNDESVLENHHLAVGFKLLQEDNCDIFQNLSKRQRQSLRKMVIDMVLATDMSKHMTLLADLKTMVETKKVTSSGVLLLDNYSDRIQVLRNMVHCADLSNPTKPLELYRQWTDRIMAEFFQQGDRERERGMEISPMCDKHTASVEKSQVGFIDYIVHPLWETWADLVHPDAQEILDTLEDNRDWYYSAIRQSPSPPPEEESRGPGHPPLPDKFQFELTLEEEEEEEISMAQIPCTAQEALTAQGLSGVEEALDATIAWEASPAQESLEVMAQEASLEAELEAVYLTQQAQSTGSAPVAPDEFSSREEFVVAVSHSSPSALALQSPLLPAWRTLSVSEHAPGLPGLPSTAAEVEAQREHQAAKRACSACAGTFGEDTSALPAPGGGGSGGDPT

Turning to `OB1OCc2cc(Oc3ccc(C(F)(F)F)cn3)ccc21` [Compound Y5, reference compound], at PDE4A enzyme, the remaining activity – broadly, the share of the control activity or signal that is left under treatment – at 0.01 µM stood at 61.3 ± 3.18%; the remaining activity at 0.1 µM came to 15.3 ± 1.3%; the remaining activity at 1 µM was found to be 5.56 ± 0.28%. In experiment [1], the “reduction of the thickness of the dermis compared with Crisaborole” value is “significantly reduce the thickness of the dermis of dermatitis mice (P≤0.01)”, the “reduction of the thickness of the epidermis compared with Crisaborole” value was “significantly reduce the thickness of the epidermis of the dermatitis mice (P≤0.05)”, the Epidermal thickness is 90.14 ± 8.98 μm and the Dermis thickness was determined as 415.08 ± 25.00 μm. For the same compound, the “reduction of the thicknesses of the epidermal layer and dermal layer” value in experiment [1] was “significantly reduce the thicknesses of the epidermal layer and dermal layer”.
On PDE4A enzyme, `N#Cc1ccc(Oc2ccc3c(c2)COB3O)cc1` [Crisaborole, reference compound] gave a remaining activity at 0.01 µM of 78 ± 5.02%, a remaining activity at 0.1 µM of 35.2 ± 3.35% and a remaining activity at 1 µM of 11 ± 0.52%. In experiment [1], the Epidermal thickness amounted to 105.26 ± 11.35 μm; the Dermis thickness turned out to be 455.14 ± 27.27 μm; the “reduction of the thicknesses of the epidermal layer and dermal layer” value was “significantly reduce the thicknesses of the epidermal layer and dermal layer”.
As for `COC(=O)c1cccc2nc(Oc3ccc4c(c3)COB4O)ccc12` [PD-1], at PDE4A enzyme, the remaining activity at 0.01 µM came out at 18.8 ± 3.23%, the remaining activity at 0.1 µM stood at 5.45 ± 1.06% and the remaining activity at 1 µM worked out at 3.74 ± 0.71%. Moreover, in experiment [1], the “reduction of the thickness of the dermis compared with Crisaborole” value is listed as “significantly reduce the thickness of the dermis of dermatitis mice (P≤0.01)”, the “reduction of the thickness of the epidermis compared with Crisaborole” value is on record as “significantly reduce the thickness of the epidermis (P≤0.01)”, the “reduction of the thickness of the dermis compared with the compound Y5” value was “significantly reduce the thickness of the dermis of dermatitis mice (P≤0.05)” and the “reduction of the thickness of the epidermis compared with the compound Y5” value is recorded as “significantly reduce the thickness of the epidermis (P≤0.01)”. In experiment [1], this compound yielded an Epidermal thickness of 75.64 ± 7.86 aa μm and a Dermis thickness of 385.26 ± 20.17 a μm.
Turning to `O=C(O)c1cccc2nc(Oc3ccc4c(c3)COB4O)ccc12` [PD-2], at PDE4A enzyme, the remaining activity at 0.01 µM was 7.42 ± 2.11%, the remaining activity at 0.1 µM was found to be 3.8 ± 0.76% and the remaining activity at 1 µM worked out at 2.75 ± 0.51%. In experiment [1], this compound came in with an Epidermal thickness of 100.26 ± 11.35 μm and a Dermis thickness of 439.76 ± 30.02 μm.
On PDE4A enzyme, `CCOC(=O)c1cccc2nc(Oc3ccc4c(c3)COB4O)ccc12` [PD-3] yielded a remaining activity at 0.01 µM of 17.3 ± 1.19%, a remaining activity at 0.1 µM of 4.94 ± 1.56% and a remaining activity at 1 µM of 1.98 ± 0.47%. Further, in experiment [1], the “reduction of the thickness of the dermis compared with Crisaborole” value was “significantly reduce the thickness of the dermis of dermatitis mice (P≤0.05)”, the Epidermal thickness is 98.74 ± 9.63 μm and the Dermis thickness is recorded as 420.80 ± 30.55 μm.
At PDE4A enzyme, `N#Cc1ccc2nc(Oc3ccc4c(c3)COB4O)ccc2c1` [PD-4] registered a remaining activity at 0.01 µM of 6.17 ± 0.34%, a remaining activity at 0.1 µM of 2.49 ± 0.75% and a remaining activity at 1 µM of 1.95 ± 0.18%. In addition, in experiment [1], the “reduction of the thickness of the dermis compared with Crisaborole” value is recorded as “significantly reduce the thickness of the dermis of dermatitis mice (P≤0.01)”, the “reduction of the thickness of the epidermis compared with Crisaborole” value is recorded as “significantly reduce the thickness of the epidermis (P≤0.01)”, the “reduction of the thickness of the dermis compared with the compound Y5” value is “significantly reduce the thickness of the dermis of dermatitis mice (P≤0.01)” and the “reduction of the thickness of the epidermis compared with the compound Y5” value is given as “significantly reduce the thickness of the epidermis (P≤0.01)”. Further, in experiment [1], the Epidermal thickness is on record as 70.42 ± 9.24 aa μm and the Dermis thickness is recorded as 375.06 ± 20.41 a a μm.
With `COC(=O)c1cc(Oc2ccc3c(c2)COB3O)nc2ccccc12` [PD-5], at PDE4A enzyme, the remaining activity at 0.01 µM was 9.01 ± 2.02%, the remaining activity at 0.1 µM is 7.27 ± 1.78% and the remaining activity at 1 µM turned out to be 3.46 ± 1.18%. In experiment [1], this compound showed an Epidermal thickness of 106.74 ± 15.14 μm and a Dermis thickness of 440.12 ± 23.22 μm.
With `OB1OCc2cc(Oc3ccc4cc(C(F)(F)F)ccc4n3)ccc21` [PD-6], on PDE4A enzyme, the remaining activity at 0.01 µM turned out to be 0.9 ± 0.23%, the remaining activity at 0.1 µM worked out at 0.6 ± 0.1% and the remaining activity at 1 µM was 0.32 ± 0.13%. In addition, in experiment [1], the “reduction of the thickness of the dermis compared with Crisaborole” value is listed as “significantly reduce the thickness of the dermis of dermatitis mice (P≤0.01)”, the “reduction of the thickness of the epidermis compared with Crisaborole” value is on record as “significantly reduce the thickness of the epidermis (P≤0.01)”, the “reduction of the thickness of the dermis compared with the compound Y5” value is given as “significantly reduce the thickness of the dermis of dermatitis mice (P≤0.01)” and the “reduction of the thickness of the epidermis compared with the compound Y5” value was “significantly reduce the thickness of the epidermis (P≤0.01)”. In experiment [1], the Epidermal thickness was 70.87 ± 14.43 ^aa μm and the Dermis thickness is recorded as 380.15 ± 22.54 ^a a μm.
As for `OB1OCc2cc(Oc3ccc4c(C(F)(F)F)cccc4n3)ccc21` [PD-7], at PDE4A enzyme, the remaining activity at 0.01 µM was determined as 6.41 ± 0.32%, the remaining activity at 0.1 µM worked out at 1.83 ± 0.41% and the remaining activity at 1 µM came to 1.12 ± 0.99%. In addition, in experiment [1], the “reduction of the thickness of the dermis compared with Crisaborole” value is given as “significantly reduce the thickness of the dermis of dermatitis mice (P≤0.01)”, the “reduction of the thickness of the epidermis compared with Crisaborole” value is “significantly reduce the thickness of the epidermis (P≤0.01)”, the “reduction of the thickness of the dermis compared with the compound Y5” value was “significantly reduce the thickness of the dermis of dermatitis mice (P≤0.01)” and the “reduction of the thickness of the epidermis compared with the compound Y5” value is recorded as “significantly reduce the thickness of the epidermis (P≤0.01)”. In experiment [1], this compound yielded an Epidermal thickness of 68.21 ± 7.66 aa μm and a Dermis thickness of 370.11 ± 24.60 a a μm.
As for `OB1OCc2cc(Oc3ccc4c(C(F)(F)F)cc(Cl)cc4n3)ccc21` [PD-8], at PDE4A enzyme, the remaining activity at 0.01 µM was 4.36 ± 0.59%, the remaining activity at 0.1 µM came out at 2.25 ± 1.19% and the remaining activity at 1 µM was found to be 1.21 ± 0.17%. Moreover, in experiment [1], the “reduction of the thickness of the dermis compared with Crisaborole” value is reported as “significantly reduce the thickness of the dermis of dermatitis mice (P≤0.01)”, the “reduction of the thickness of the epidermis compared with Crisaborole” value is given as “significantly reduce the thickness of the epidermis (P≤0.01)”, the “reduction of the thickness of the dermis compared with the compound Y5” value is “significantly reduce the thickness of the dermis of dermatitis mice (P≤0.05)” and the “reduction of the thickness of the epidermis compared with the compound Y5” value is given as “significantly reduce the thickness of the epidermis (P≤0.01)”. In addition, in experiment [1], the Epidermal thickness is given as 76.58 ± 8.79**^##aa μm and the Dermis thickness was 385.17 ± 28.85 ^a μm.
Take `N#Cc1ccc2nc(Oc3ccc4c(c3)COB4O)cc(C(F)(F)F)c2c1` [PD-9]: at PDE4A enzyme, the remaining activity at 0.01 µM came to 3.41 ± 0.45%, the remaining activity at 0.1 µM was 1.92 ± 0.39% and the remaining activity at 1 µM is 0.99 ± 0.85%. Also, in experiment [1], the “reduction of the thickness of the dermis compared with Crisaborole” value is “significantly reduce the thickness of the dermis of dermatitis mice (P≤0.05)”, the “reduction of the thickness of the epidermis compared with Crisaborole” value is given as “significantly reduce the thickness of the epidermis of the dermatitis mice (P≤0.05)”, the Epidermal thickness came out at 97.25 ± 10.43 μm and the Dermis thickness came to 413.25 ± 31.50 μm.
Consider `COC(=O)c1ccc2nc(Oc3ccc4c(c3)COB4O)ccc2c1` [PD-10], for which, at PDE4A enzyme, the remaining activity at 0.01 µM came out at 10.8 ± 1.6%, the remaining activity at 0.1 µM turned out to be 2.45 ± 0.32% and the remaining activity at 1 µM came out at 1.55 ± 0.67%. Moreover, in experiment [1], the “reduction of the thickness of the dermis compared with Crisaborole” value is “significantly reduce the thickness of the dermis of dermatitis mice (P≤0.01)”, the “reduction of the thickness of the epidermis compared with Crisaborole” value is “significantly reduce the thickness of the epidermis (P≤0.01)”, the Epidermal thickness is on record as 92.17 ± 9.94 μm and the Dermis thickness came out at 406.74 ± 29.54 μm.
For `NC(=O)c1cccc2nc(Oc3ccc4c(c3)COB4O)ccc12` [PD-11], at PDE4A enzyme, the remaining activity at 0.01 µM came to 10.1 ± 1.93%, the remaining activity at 0.1 µM was determined as 5.85 ± 0.72% and the remaining activity at 1 µM came to 1.7 ± 0.43%. In experiment [1], this compound yielded an Epidermal thickness of 95.37 ± 8.75 μm and a Dermis thickness of 443.17 ± 33.40 μm.
Regarding `C[C@@H]1C[C@H]2[C@@H]3CCC4=CC(=O)C=C[C@]4(C)[C@@]3(F)[C@@H](O)C[C@]2(C)[C@@]1(O)C(=O)CO` [hexadecadrol, reference compound], in experiment [1], the Epidermal thickness is recorded as 72.14 ± 10.58 ^a a μm; the Dermis thickness is given as 377.32 ± 22.05**^a a μm; the “reduction of the thicknesses of the epidermal layer and dermal layer” value was “significantly reduce the thicknesses of the epidermal layer and dermal layer”.
